SMILES strings stand for the structures. Values after ≈ are worked out from the molar mass of the structure shown. Values joined by “and” are separate entries in the source; they are usually repeats but may differ in a detail not shown here. Equal values may be shown once. Read-outs that look alike come from different tables or passages of the source.

In assay [1] the test system is S. aureus MSSA (ATCC 29213). As to the kind of experiment: MIC susceptibility testing. Conditions: Staphylococcus aureus, S. aureus ATCC 29213, read-out: (F) S. aureus (ATCC 29213) MIC. Format: cell-based, Staphylococcus aureus.
The next assay has as its system S. pyogenes (ATCC 19615). Put plainly: MIC susceptibility testing. The assay is classed as cell-based. Conditions: Streptococcus pyogenes, ATCC19615, S. pyogenes ATCC 19615; read-out: (H) S. pyogenes (ATCC 19615) MIC. The text has this: Media and culture conditions. Mueller Hinton broth (MHB), cation adjusted Mueller Hinton broth (CA-MHB), and Brain Heart Infusion broth (BHI) were purchased from Becton Dickinson (Franklin Lakes, N.J.). Tryptic soy agar (TSA) plates, TSA with 5% sheep blood plates, and CA-MHB with 3% laked horse blood were purchased from Remel (San Diego, Calif.). MHB was used to assay all Staphylococcus aureus strains. CA-MHB was used for Staphylococcus epidermidis, Enterococcus faecalis, Enterococcus faecium, Escherichia coli, and Pseudomonas aeruginosa. CA-MHB supplemented with 3% laked horse blood was used for Streptococcus pneumoniae and Streptococcus pyogenes. Staphylococcus, Enterococcus, Escherichia, and Pseudomonas strains were cultured at 37° C. with ambient air. Streptococcus strains were cultured in 37° C. with 5% CO2. Separate conditions for radiolabeled precursor uptake assays are described below.
Susceptibility testing: Minimum inhibitory concentration (MIC) determinations were performed in triplicate in 96-well round bottom microtiter plates (Corning, Corning N.Y.) as described by the Clinical and Laboratory Standards Institute (CLSI). Serial two-fold dilutions of compounds were added to plates in 50 μL volumes. An additional 50 μL of media containing bacterial cells (1×10^6 CFUs/mL) was then added to each well. Maximum DMSO concentrations were 0.5%. Plates were incubated at 37° C. for at least 18 h before reading the susceptibility result by optical absorbance (OD600) using a BioTek ELx800. The lowest concentration causing ≥90% growth inhibition compared to the untreated control was recorded as the MIC (and also corresponded to the visual MIC). MICs were measured at least twice and the higher value (if different) was recorded herein.

The subject of the next assay is T. brucei. As to the kind of experiment: T. brucei growth inhibition. The assay is classed as cell-based, Trypanosoma brucei. As to conditions: read-out: (D) T. brucei EC50.
For a further assay, the system named is T. cruzi. Put plainly: T. cruzi growth inhibition. The assay is classed as cell-based, Trypanosoma cruzi. Conditions: read-out: (E) T. cruzi EC50.
The subject of the next assay is C. parvum. As to the kind of experiment: C. parvum growth inhibition. Conditions: Cryptosporidium parvum; read-out: (J) C. parvum EC50. The assay is classed as cell-based, Cryptosporidium parvum.
Assay [2] deals with recombinant S. aureus MetRS enzyme (Staphylococcus aureus, UniProt A0A0H2XID2). Put plainly: Inhibition of SaMetRS, ATP depletion assay. Format: biochemical. As to conditions: read-out: (B) MetRS (S. aureus) IC50. How it is done:
Production of recombinant S. aureus MetRSs. The SaMetRS gene (UniProtKB—A0A0H2XID2) was PCR amplified (Sense 5′-[…]-3′ (SEQ ID NO: 1) and Antisense 5′-[…]-3′ (SEQ ID NO:2)) from genomic DNA isolated from S. aureus (ATCC 29213) cultures. The PCR product was then cloned into the AVA0421 plasmid and sequence verified. The expression of recombinant protein was performed as previously described. The N-terminal 6-His fusion proteins were purified by nickel affinity chromatography followed by size exclusion gel chromatography (Superdex 75 26/60; GE Biosciences, Piscataway, N.J.).
Enzyme assays. Inhibition of SaMetRS was measured using the ATP depletion assay as previously described with some modifications. Compounds were pre-incubated for 15 minutes at room temperature in a 96-well plate with 400 μg/mL bulk E. coli tRNA, 25 nM SaMetRS, 0.1 U/mL pyrophosphatase, 0.2 mM spermine, 0.1 mg/mL bovine serum albumin, 2.5 mM dithiothreitol, 25 mM HEPES-KOH pH 7.9, 10 mM MgCl2, 50 mM KCl, and 2% DMSO. Reagents were purchased from Sigma-Aldrich or Roche. The reaction was started with the addition of 150 nM ATP and 20 μM L-methionine and after 120 minute incubation was stopped by the addition of an equal volume (50 μL) of Kinase-Glo® (Promega). Percent inhibition=100×(test compound−AVG low control)/(AVG high control−AVG low control) where the low control is all reagents except the compound and the high control is all reagents except the compounds and L-methionine. IC50 values were calculated by non-linear regression, sigmoidal-dose response, in Prism 3.0.

In assay [3] the test system is S. aureus MRSA (ATCC 33591). Put plainly: MIC susceptibility testing. The assay is classed as cell-based, Staphylococcus aureus. Conditions: MRSA ATCC33591; for MIC: Staphylococcus aureus, read-out: (G) MRSA (ATCC33591) MIC. The essentials:
(§1)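 CLSI broth microdilution with two-fold compound dilutions, in triplicate; cells added in medium at 1×10^6 CFUs/mL, DMSO ≤0.5%. Media: MHB for S. aureus, CA-MHB for E. coli and E. faecium, CA-MHB plus 3% laked horse blood for S. pyogenes (5% CO2).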

Assay [4] concerns E. faecium VRE (ATCC 51559). Put plainly: MIC susceptibility testing. Format: cell-based, Enterococcus faecium. Conditions: Enterococcus faecium, E. faecium ATCC 51559; read-out: (I) E. faecium (ATCC 51559) MIC. The essentials:
as §1

The target in another assay is T1, MetRS (T. brucei) (Trypanosoma brucei brucei, UniProt Q38C91).
T1 sequence (Q38C91 1-773): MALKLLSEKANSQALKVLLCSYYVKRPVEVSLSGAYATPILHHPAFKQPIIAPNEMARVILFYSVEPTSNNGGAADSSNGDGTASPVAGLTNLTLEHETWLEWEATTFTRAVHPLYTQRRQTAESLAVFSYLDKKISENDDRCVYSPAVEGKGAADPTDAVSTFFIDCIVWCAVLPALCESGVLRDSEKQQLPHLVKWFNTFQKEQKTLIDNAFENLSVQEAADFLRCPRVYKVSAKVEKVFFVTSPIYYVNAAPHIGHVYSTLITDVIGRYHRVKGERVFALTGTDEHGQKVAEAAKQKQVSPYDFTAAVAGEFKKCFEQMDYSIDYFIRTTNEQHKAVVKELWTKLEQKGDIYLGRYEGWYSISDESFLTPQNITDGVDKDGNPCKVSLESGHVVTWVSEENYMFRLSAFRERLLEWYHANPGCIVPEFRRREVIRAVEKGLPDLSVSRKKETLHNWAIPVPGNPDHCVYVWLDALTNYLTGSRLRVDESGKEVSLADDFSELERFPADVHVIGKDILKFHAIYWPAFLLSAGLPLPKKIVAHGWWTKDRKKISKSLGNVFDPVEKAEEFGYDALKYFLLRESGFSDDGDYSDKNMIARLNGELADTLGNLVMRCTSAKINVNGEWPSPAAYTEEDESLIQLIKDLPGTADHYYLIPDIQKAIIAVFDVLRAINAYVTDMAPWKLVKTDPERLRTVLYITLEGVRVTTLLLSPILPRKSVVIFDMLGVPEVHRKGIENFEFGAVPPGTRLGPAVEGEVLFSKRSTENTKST
Put plainly: MetRS (T. brucei) enzyme inhibition. The assay is classed as biochemical.

Another assay has as its target MetRS (C. parvum) (Cryptosporidium parvum, UniProt Q5CVN0). Put plainly: MetRS (C. parvum) enzyme inhibition. Format: biochemical. As to conditions: read-out: (C) MetRS (C. parvum) IC50.

Chain of recombinant S. aureus MetRS enzyme (A0A0H2XID2 2-657): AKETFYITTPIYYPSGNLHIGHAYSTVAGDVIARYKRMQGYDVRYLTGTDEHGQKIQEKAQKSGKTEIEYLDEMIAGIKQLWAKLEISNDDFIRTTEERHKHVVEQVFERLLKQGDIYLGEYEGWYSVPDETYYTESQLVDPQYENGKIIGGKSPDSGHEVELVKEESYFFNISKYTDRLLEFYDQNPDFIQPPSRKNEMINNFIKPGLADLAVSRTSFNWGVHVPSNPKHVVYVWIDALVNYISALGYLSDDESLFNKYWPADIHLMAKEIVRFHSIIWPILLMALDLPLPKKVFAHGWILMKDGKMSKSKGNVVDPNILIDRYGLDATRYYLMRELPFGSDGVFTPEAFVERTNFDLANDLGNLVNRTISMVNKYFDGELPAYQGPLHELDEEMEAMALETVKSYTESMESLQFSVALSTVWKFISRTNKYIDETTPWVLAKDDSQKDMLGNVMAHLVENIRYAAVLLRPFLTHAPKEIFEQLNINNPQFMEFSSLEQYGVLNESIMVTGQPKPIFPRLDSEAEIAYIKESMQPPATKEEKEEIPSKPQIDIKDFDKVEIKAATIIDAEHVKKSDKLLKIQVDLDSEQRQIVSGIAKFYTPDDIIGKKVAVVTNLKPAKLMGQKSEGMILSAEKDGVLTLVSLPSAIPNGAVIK
Chain of MetRS (C. parvum) (Q5CVN0 entry or part of it): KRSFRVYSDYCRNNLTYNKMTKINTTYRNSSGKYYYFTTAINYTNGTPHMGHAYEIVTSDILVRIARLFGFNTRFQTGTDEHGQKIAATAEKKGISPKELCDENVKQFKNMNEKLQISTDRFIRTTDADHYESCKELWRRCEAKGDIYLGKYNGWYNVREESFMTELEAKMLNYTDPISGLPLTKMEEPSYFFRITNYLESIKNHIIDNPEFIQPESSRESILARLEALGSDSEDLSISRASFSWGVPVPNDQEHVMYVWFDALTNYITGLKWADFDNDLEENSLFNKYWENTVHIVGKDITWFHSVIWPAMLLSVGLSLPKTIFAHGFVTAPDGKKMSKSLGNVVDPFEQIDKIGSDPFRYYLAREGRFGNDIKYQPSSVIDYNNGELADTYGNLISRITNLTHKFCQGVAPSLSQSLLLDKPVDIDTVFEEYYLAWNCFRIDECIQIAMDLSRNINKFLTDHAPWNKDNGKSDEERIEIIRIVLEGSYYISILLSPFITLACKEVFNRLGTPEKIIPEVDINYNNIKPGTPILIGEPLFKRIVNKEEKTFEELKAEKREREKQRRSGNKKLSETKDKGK

With `CCn1c(C(O)c2ccc(OC)cc2Cl)cn(Cc2nc3ccc(Cl)nc3[nH]2)c1=O` (stereo not shown) [Compound 2297, 1-({5-chloro-1H-imidazo[4,5-b]pyridin-2-yl}methyl)-4-[(2-chloro-4-methoxyphenyl)(hydroxy)methyl]-3-ethyl-2,3-dihydro-1H-imidazol-2-one], the MIC is 2.98 µg/mL (≈ 6.65 µM) in assay [1] and more than 8 µg/mL with S. pyogenes (ATCC 19615). Besides, the EC50 in the assay with T. brucei (Trypanosoma brucei) stood at 0.00712 µM; with T. cruzi (Trypanosoma cruzi) it was 0.0538 µM; in the assay with T. cruzi, 0.0797 µM; in the assay with C. parvum, 0.203 µM.
For the molecule `CC(C)NCC(O)Cn1c(Cc2ccc(Cl)cc2Cl)cn(Cc2nc3ccc(F)nc3[nH]2)c1=O` (stereo not shown) [Compound 2294, 4-[(2,4-dichlorophenyl)methyl]-1-({5-fluoro-1H-imidazo[4,5-b]pyridin-2-yl}methyl)-3-{2-hydroxy-3-[(propan-2-yl)amino]propyl}-2,3-dihydro-1H-imidazol-2-one], the MIC (in assay [1]; in the assay on S. pyogenes (ATCC 19615)) was more than 8 µg/mL throughout. For the same molecule, the EC50 in the assay with T. brucei (Trypanosoma brucei) was 0.0304 µM; with T. cruzi (Trypanosoma cruzi), 3.33 µM.
For `Clc1ccc(-c2cccc3nc(Cc4nc5nc(Cl)ccc5[nH]4)cn23)c(Cl)c1` [Compound 2134, 2-({5-chloro-1H-imidazo[4,5-b]pyridin-2-yl}methyl)-5-(2,4-dichlorophenyl)-imidazo[1,2-a]pyridine], the figures for the IC50 (in [2]; on MetRS (T. brucei); on MetRS (C. parvum)) were less than 0.025 µM, less than 0.04 µM and 0.0588 µM, respectively. The “(G) MRSA (ATCC33591) MIC” value in assay [3] was 0.331 µg/mL. Also, the MIC amounted to 0.268 µg/mL (≈ 0.625 µM) in [3], 0.162 µg/mL (≈ 0.378 µM) in assay [1] and 0.259 µg/mL (≈ 0.604 µM) in [4]. Further, the EC50 with T. brucei (Trypanosoma brucei) came to 0.064 µM; with T. cruzi (Trypanosoma cruzi), 0.685 µM.
Turning to `O=c1n(Cc2nc3ccc(Cl)nc3[nH]2)cc(Cc2ccc(Cl)cc2Cl)n1CC(F)F` [Compound 2138, 1-({5-chloro-1H-imidazo[4,5-b]pyridin-2-yl}methyl)-4-[(2,4-dichlorophenyl)-methyl]-3-(2,2-difluoroethyl)-2,3-dihydro-1H-imidazol-2-one], the IC50 in [2] is less than 0.025 µM; against MetRS (T. brucei), less than 0.04 µM; on MetRS (C. parvum), less than 0.04 µM. In addition, the MIC in [3] was found to be 0.553 µg/mL (≈ 1.17 µM); in [1], 0.062 µg/mL (≈ 0.131 µM); in assay [4] it was 0.596 µg/mL (≈ 1.26 µM). Also, the EC50 in the assay on T. brucei (Trypanosoma brucei) was found to be 0.00246 µM; in the assay on T. brucei, 0.00348 µM; with T. cruzi (Trypanosoma cruzi) it was 0.0267 µM; in the assay with T. cruzi, 0.0531 µM.
For the molecule `COc1cc(-c2cccc3nc(Cc4nc5nc(Br)ccc5[nH]4)cn23)c(Cl)cc1Cl` [Compound 2146, 2-({5-bromo-1H-imidazo[4,5-b]pyridin-2-yl}methyl)-5-(2,4-dichloro-5-methoxyphenyl)imidazo[1,2-a]pyridine], the values for the IC50 (in assay [2]; against MetRS (T. brucei); on MetRS (C. parvum)) were less than 0.025 µM, less than 0.04 µM and 0.0924 µM, respectively. In addition, the “(G) MRSA (ATCC33591) MIC” value in assay [3] was 0.165, μg/mL and 0.179 μg/mL. Also, the MIC was 0.127 µg/mL (≈ 0.252 µM) in [3] and 0.141 µg/mL (≈ 0.28 µM) in [4]. The EC50 in the assay on T. cruzi (Trypanosoma cruzi) was 0.0195 µM; with T. cruzi it was 0.0297 µM; in the assay with C. parvum, 1.99 µM.
As for `COc1ccc(-c2ccc(NS(C)(=O)=O)c3nc(Cc4nc5nc(Cl)ccc5[nH]4)cn23)c(Cl)c1` [Compound 2174, N-[2-({5-chloro-1H-imidazo[4,5-b]pyridin-2-yl}methyl)-5-(2-chloro-4-methoxyphenyl)imidazo[1,2-a]pyridin-8-yl]methanesulfonamide], the IC50 in assay [2] was less than 0.025 µM; against MetRS (T. brucei), less than 0.04 µM; on MetRS (C. parvum) it was less than 0.04 µM. Further, the MIC was 0.319 µg/mL (≈ 0.617 µM) in assay [3], 0.158 µg/mL (≈ 0.305 µM) in [1] and 0.318 µg/mL (≈ 0.615 µM) in assay [4]. In addition, the values for the concentration for a half-maximal effect (EC50) with T. cruzi (Trypanosoma cruzi) and in the assay on C. parvum were 0.195 µM and 1.19 µM, respectively.
On to `CCn1c(Cc2c(Cl)cc(Cl)cc2OC)cn(Cc2nc3ccc(Cl)nc3[nH]2)c1=O` [Compound 2295], for which the MIC amounted to 0.124 µg/mL (≈ 0.266 µM) in [1] (ATCC29213|MSSA) and 1.16 µg/mL (≈ 2.49 µM) in the assay on S. pyogenes (ATCC 19615). The EC50 is less than 0.00091 µM in the assay on T. brucei (Trypanosoma brucei), 0.00071 µM in the assay with T. brucei, 0.0053 µM with T. cruzi (Trypanosoma cruzi) and 0.00459 µM with T. cruzi.
For `CC(C)NCC(O)Cn1c(Cc2ccc(Cl)cc2Cl)cn(Cc2nc3cc(F)c(F)cc3[nH]2)c1=O` (stereo not shown) [Compound 2293, 4-[(2,4-dichlorophenyl)methyl]-1-[(5,6-difluoro-1H-1,3-benzodiazol-2-yl)methyl]-3-{2-hydroxy-3-[(propan-2-yl)amino]propyl}-2,3-dihydro-1H-imidazol-2-one], the minimal inhibitory concentration (MIC) (in assay [1]; in the assay on S. pyogenes (ATCC 19615)) was more than 8 µg/mL each time. In the assay with T. brucei (Trypanosoma brucei), the 50% effective concentration (EC50) came to 0.831 µM.
For `COc1ccc(-c2ccc(NC(C)=O)c3nc(Cc4nc5nc(Br)ccc5[nH]4)cn23)c(Cl)c1` [Compound 2184, N-[2-({5-bromo-1H-imidazo[4,5-b]pyridin-2-yl}methyl)-5-(2-chloro-4-methoxyphenyl)imidazo[1,2-a]pyridin-8-yl]acetamide], the IC50 in assay [2] was less than 0.025 µM; against MetRS (T. brucei), less than 0.04 µM; on MetRS (C. parvum), less than 0.04 µM. The MIC in assay [3] was 0.435 µg/mL (≈ 0.827 µM); in [1], 0.201 µg/mL (≈ 0.382 µM); in assay [4], 0.286 µg/mL (≈ 0.544 µM). The EC50 was determined as 0.0293 µM with T. cruzi (Trypanosoma cruzi), 0.0232 µM in the assay with T. cruzi and 0.719 µM in the assay on C. parvum.

As a reminder, the MIC is the least concentration at which growth counts as inhibited. One may read the EC50 as the midpoint of the concentration-response curve. One may read the IC50 as the concentration that gives 50% inhibition.

The record behind these values is US11584744B2 (UNIVERSITY OF WASHINGTON, priority 2017, dated 2023).
